# According to PMC5590106 (Biochemical and biophysical research communications, 2017):
# pIC50: −log10 of the molar value.
# How the values were obtained:
# Type in all cases: biochemical
# [1] = biological target: T1, C. elegans CED-3 (crude lysate, CED-3L) (Caenorhabditis elegans, UniProt P42573); assay: CED-3 fluorogenic assay
# T1 sequence (P42573 221-374 limits assumed): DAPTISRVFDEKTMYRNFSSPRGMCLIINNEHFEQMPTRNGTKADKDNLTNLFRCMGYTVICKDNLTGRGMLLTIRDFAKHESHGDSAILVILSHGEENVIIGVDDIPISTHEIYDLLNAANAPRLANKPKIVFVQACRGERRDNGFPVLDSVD
# T1 sequence (P42573 389-503 limits assumed): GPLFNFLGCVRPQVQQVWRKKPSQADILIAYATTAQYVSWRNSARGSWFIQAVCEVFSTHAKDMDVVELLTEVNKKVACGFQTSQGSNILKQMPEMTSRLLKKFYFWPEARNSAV
# [2] = biological target: T2, purified C. elegans CED-3 (Caenorhabditis elegans, UniProt P42573); assay: CED-3 fluorogenic assay; details: for Purified CED-3 Hill Slope Value: determined by XLfit in ActivityBase
# T2 sequence (P42573 221-374 limits assumed): T1 sequence (P42573 221-374 limits assumed)
# T2 sequence (P42573 389-503 limits assumed): T1 sequence (P42573 389-503 limits assumed)
# Human Caspase 3 (HCASP3) = biological target: T3, Human Caspase 3 (HCASP3) (Homo sapiens, UniProt P42574); assay: Human caspase-3 fluorogenic assay
# T3 sequence (P42574 29-175 limits assumed): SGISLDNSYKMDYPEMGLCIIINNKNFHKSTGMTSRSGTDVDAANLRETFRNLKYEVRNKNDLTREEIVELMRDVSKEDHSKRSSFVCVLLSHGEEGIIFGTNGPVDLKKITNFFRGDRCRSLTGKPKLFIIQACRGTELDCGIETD
# T3 sequence (P42574 176-277 limits assumed): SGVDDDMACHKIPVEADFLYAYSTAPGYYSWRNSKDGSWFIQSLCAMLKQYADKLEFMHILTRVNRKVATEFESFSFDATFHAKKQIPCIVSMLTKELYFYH
Compound,pIC50 [1],pIC50 [2],Purified CED-3 Hill Slope Value [2],further results
CC(=O)c1ccc(-c2ccc(/C=C3/SC(=S)NC3=O)o2)cc1 [BAS 00253468],4.68,5.05,1.79,–
O=c1cc2oc3cc(O)c(O)cc3c(-c3ccccn3)c-2cc1O [BAS 05223612],4.61,5.41,1.7,"inhibition of HCASP3 (in words) (Human Caspase 3 (HCASP3); dose-response, at the concentrations tested): inhibited; inhibition of CED-3 (in words) [2]: inhibited"
"CC(=O)N[C@@H](CC(=O)O)C(=O)N[C@@H](CCC(=O)O)C(=O)N[C@H](C(=O)N[C@H](C=O)CC(=O)O)C(C)C [Ac-DEVD-CHO, reference compound]",8.72,8.57,–,"calculated Hill slope on CED-3L ([1]; crude lysate, Fig. 1A): −0.994"
O=C(/C=C/c1ccco1)c1ccc(NC(=O)c2cccs2)cc1 [BAS 00835000],4.52,5.31,1.38,–
O=C(/C=C/c1ccccc1)NNC1=NS(=O)(=O)c2ccccc21 [BAS01847186],–,–,–,potency on HCASP3 compared to CED-3 (Human Caspase 3 (HCASP3)): as potent or more so on HCASP3
O=C1NC(=S)N(c2ccc(F)cc2)C(=O)/C1=C/c1ccco1 [BAS 01202237],–,–,1.5,–
CCCOC(=O)/C(=C\C=C\c1ccco1)NC(=O)c1ccccc1 [BAS 00187854],4.46,4.84,1.27,–
COc1ccc(N2C(=O)/C(=C/c3ccco3)C(=O)NC2=S)cc1 [BAS 00519146],–,–,1.6,"pIC50 (Human Caspase 3 (HCASP3); read-out: IC50 HCASP-3, purified HCASP3, Fig. 3C): 4.97"
Nc1ccc(N2Cc3ccccc3C2)cc1 [BAS 01988614],4.37,4.87,0.62,–
